Results reported in publication PMC5650142, “GPR40 partial agonists and AgoPAMs: Differentiating effects on glucose and hormonal secretions in the rodent” (PLoS ONE, 2017).
Values joined by “and” are separate entries in the source; they are usually repeats but may differ in a detail not shown here. Equal entries are not always repeated. Where two headings read alike, the source gives them in different places.

Assays:
mouse GPR40 = target: T1, mouse GPR40 (Mus musculus, UniProt Q76JU9); test: Mouse GPR40 IP1 accumulation assay; type: cell-based
T1 construct: expressed in transfected cells; host or cells: CHO-K1 (methods)
In short: (§1)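 IP1 accumulation is measured by HTRF after 60 min compound stimulation at room temperature in LiCl (50 mM)-containing buffer. Compounds run in ½-log dilutions from a final top concentration of 10 μM or 1 μM. Cells are hGPR40/HEK293, mGPR40/CHO-K1 and rGPR40/CHO-K1. Activity is scaled between DMSO and a partial allosteric agonist and fitted to a 4-parameter curve for EC50 and maximum.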

human GPR40 [1] = target: T2, human GPR40 (Homo sapiens, UniProt O14842); test: Human GPR40 IP1 accumulation assay; type: cell-based; parameters: expressed in transfected cells
In short: as §1

human GPR40 [2] = target: T2, human GPR40; test: GPR40 binding assay, partial agonist tracer [3H]L358; parameters: expressed in transfected cells; host or cells: CHO / CHO-K1 cells, membrane preparation;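 as to %Bound: 100% is tracer binding with DMSO alone and 0% is full displacement by a standard compound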
In short: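 SPA binding on membranes from CHO cells stably expressing human GPR40 (5 μg/well, with WGA beads) in Tris/MgCl2/EDTA buffer at room temperature. Each compound was tested against tracer [3H]L358 (partial-agonist site) or [3H]25 (AgoPAM site), since it may displace or augment tracer binding. Maximal % bound and IC50 were derived from scintillation counts.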

rat GPR40 = target: T3, rat GPR40 (Rattus norvegicus, UniProt Q8K3T4); test: Rat GPR40 IP1 accumulation assay; type: cell-based
T3 construct: expressed in transfected cells; host or cells: CHO-K1 (methods)
In short: as §1

[3] = maximal % activity vs in-house partial agonist control
[4] = radioligand L-001533358, dose 0.318285 nM
[5] = radioligand L-001533358, dose 1.00578 nM
[6] = radioligand L-001533358, dose 3.17827 nM
[7] = radioligand L-001533358, dose 10.0433 nM
[8] = radioligand L-001533358, dose 31.7369 nM
[9] = radioligand L-001533358, dose 100.289 nM
[10] = radioligand L-001533358, dose 316.912 nM
[11] = radioligand L-001533358, dose 1001.44 nM
[12] = radioligand L-001533358, dose 3164.56 nM
[13] = radioligand L-001533358, dose 10000 nM

T3 sequence (Q8K3T4 whole entry): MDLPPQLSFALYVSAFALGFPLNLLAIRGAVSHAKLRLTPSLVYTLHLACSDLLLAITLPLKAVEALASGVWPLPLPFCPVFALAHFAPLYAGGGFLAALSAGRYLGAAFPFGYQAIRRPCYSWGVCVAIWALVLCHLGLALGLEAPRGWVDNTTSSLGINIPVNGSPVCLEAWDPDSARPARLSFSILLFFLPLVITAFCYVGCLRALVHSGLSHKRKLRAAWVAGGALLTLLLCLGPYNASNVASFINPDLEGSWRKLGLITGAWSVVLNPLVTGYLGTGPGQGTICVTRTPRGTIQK
T1 sequence (Q76JU9 whole entry): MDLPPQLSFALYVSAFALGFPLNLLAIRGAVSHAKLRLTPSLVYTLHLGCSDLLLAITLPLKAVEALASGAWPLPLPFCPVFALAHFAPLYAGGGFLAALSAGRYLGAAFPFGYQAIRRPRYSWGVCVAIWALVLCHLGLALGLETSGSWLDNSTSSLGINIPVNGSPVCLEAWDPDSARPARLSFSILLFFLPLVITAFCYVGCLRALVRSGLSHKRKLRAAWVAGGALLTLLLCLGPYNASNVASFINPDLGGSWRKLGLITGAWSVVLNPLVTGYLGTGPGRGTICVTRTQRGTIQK
T2 sequence (O14842 whole entry): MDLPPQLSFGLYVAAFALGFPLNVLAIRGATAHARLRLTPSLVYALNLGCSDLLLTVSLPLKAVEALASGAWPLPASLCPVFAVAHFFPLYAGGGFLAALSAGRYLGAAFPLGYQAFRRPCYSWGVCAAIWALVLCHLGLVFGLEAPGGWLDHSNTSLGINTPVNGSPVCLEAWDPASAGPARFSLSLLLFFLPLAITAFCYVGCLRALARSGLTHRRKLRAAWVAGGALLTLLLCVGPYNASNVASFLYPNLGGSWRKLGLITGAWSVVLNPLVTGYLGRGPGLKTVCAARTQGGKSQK

Mouse GPR40 Receptor Activation (%) (mouse GPR40; dose 1.20E-10 M): -5.6%
Mouse GPR40 Receptor Activation (%) (mouse GPR40; dose 1.99E-06 M): 140%
Mouse GPR40 Receptor Activation (%) (mouse GPR40; dose 1.99E-07 M): 129%
Mouse GPR40 Receptor Activation (%) (mouse GPR40; dose 1.99E-08 M): 125%
Mouse GPR40 Receptor Activation (%) (mouse GPR40; dose 2.00E-09 M): 44%
Mouse GPR40 Receptor Activation (%) (mouse GPR40; dose 5.98E-07 M): 147%
Mouse GPR40 Receptor Activation (%) (mouse GPR40; dose 5.98E-08 M): 122%
Mouse GPR40 Receptor Activation (%) (mouse GPR40; dose 5.99E-09 M): 87%
Mouse GPR40 Receptor Activation (%) (mouse GPR40; dose 5.99E-10 M): 23%
EC50 (mouse GPR40; individual replicates (n), read-out: Mouse GPR40 Functional Assay EC50): 2.6 nM and 3.1 nM and 3.4 nM and 4.3 nM and 4.6 nM and 5.4 nM and 5.5 nM and 6.5 nM and 6.9 nM and 8.2 nM and 1.6 nM and 1.9 nM
Efficacy (% Activation), Mouse (mouse GPR40; [3]): (145%)
EC50 (mouse GPR40; mean ± SD, n = 2–20, IP accumulation, read-out: Potency [EC50, nM] ± SD, Mouse): 4.4 ± 2.1 nM
Human GPR40 Receptor Activation (%) (human GPR40 [1]; dose 2.00E-06 M): 100%
Human GPR40 Receptor Activation (%) (human GPR40 [1]; dose 2.00E-07 M): 90%
Human GPR40 Receptor Activation (%) (human GPR40 [1]; dose 2.00E-08 M): 81%
Human GPR40 Receptor Activation (%) (human GPR40 [1]; dose 2.00E-09 M): 31%
Human GPR40 Receptor Activation (%) (human GPR40 [1]; dose 2.00E-10 M): -1.34%
Human GPR40 Receptor Activation (%) (human GPR40 [1]; dose 6.00E-07 M): 95%
Human GPR40 Receptor Activation (%) (human GPR40 [1]; dose 6.00E-08 M): 98%
Human GPR40 Receptor Activation (%) (human GPR40 [1]; dose 6.00E-09 M): 48%
Human GPR40 Receptor Activation (%) (human GPR40 [1]; dose 6.00E-10 M): 16%
Human GPR40 Receptor Activation (%) (human GPR40 [1]; dose 6.00E-11 M): 3.69%
Efficacy (% Activation), Human (human GPR40 [1]; [3]): (102%)
Binding Results, % in parentheses, [^3H]L-358 (human GPR40 [2]; WT human GPR40, maximal % (not defined)): (91%)
binding of [^3H]L358 (human GPR40 [2]; human GPR40 membranes, competition binding): displace
% Bound Normalized to 100 (human GPR40 [2]; [4]): 100.25%
%Bound (human GPR40 [2]; [4]): 75.22%
inhibition at 0.000318285 µM (human GPR40 [2]; [4]): 15.4%
% Bound Normalized to 100 (human GPR40 [2]; [5]): 73.95%
%Bound (human GPR40 [2]; [5]): 48.92%
inhibition at 0.00100578 µM (human GPR40 [2]; [5]): 31.9%
% Bound Normalized to 100 (human GPR40 [2]; [6]): 83.61%
%Bound (human GPR40 [2]; [6]): 58.58%
inhibition at 0.00317827 µM (human GPR40 [2]; [6]): 49.3%
% Bound Normalized to 100 (human GPR40 [2]; [7]): 73.41%
%Bound (human GPR40 [2]; [7]): 48.38%
inhibition at 0.0100433 µM (human GPR40 [2]; [7]): 73.5%
% Bound Normalized to 100 (human GPR40 [2]; [8]): 43.62%
%Bound (human GPR40 [2]; [8]): 18.59%
inhibition at 0.0317369 µM (human GPR40 [2]; [8]): 84.4%
% Bound Normalized to 100 (human GPR40 [2]; [9]): 17.05%
%Bound (human GPR40 [2]; [9]): -7.97%
inhibition at 0.100289 µM (human GPR40 [2]; [9]): 102%
% Bound Normalized to 100 (human GPR40 [2]; [10]): 19.20%
%Bound (human GPR40 [2]; [10]): -5.83%
inhibition at 0.316912 µM (human GPR40 [2]; [10]): 111%
% Bound Normalized to 100 (human GPR40 [2]; [11]): 13.56%
%Bound (human GPR40 [2]; [11]): -11.46%
inhibition at 1.00144 µM (human GPR40 [2]; [11]): 105%
% Bound Normalized to 100 (human GPR40 [2]; [12]): 20.27%
%Bound (human GPR40 [2]; [12]): -4.75%
inhibition at 3.16456 µM (human GPR40 [2]; [12]): 111%
% Bound Normalized to 100 (human GPR40 [2]; [13]): 28.06%
%Bound (human GPR40 [2]; [13]): 3.03%
inhibition at 10 µM (human GPR40 [2]; [13]): 109%
Rat GPR40 Receptor Activation (%) (rat GPR40; dose 1.20E-10 M): -1.85%
Rat GPR40 Receptor Activation (%) (rat GPR40; dose 1.99E-06 M): 186%
Rat GPR40 Receptor Activation (%) (rat GPR40; dose 1.99E-07 M): 172%
Rat GPR40 Receptor Activation (%) (rat GPR40; dose 1.99E-08 M): 148%
Rat GPR40 Receptor Activation (%) (rat GPR40; dose 2.00E-09 M): 65%
Rat GPR40 Receptor Activation (%) (rat GPR40; dose 5.98E-07 M): 173%
Rat GPR40 Receptor Activation (%) (rat GPR40; dose 5.98E-08 M): 144%
Rat GPR40 Receptor Activation (%) (rat GPR40; dose 5.99E-09 M): 117%
Rat GPR40 Receptor Activation (%) (rat GPR40; dose 5.99E-10 M): 23%
EC50 (rat GPR40; individual replicates (n), read-out: Rat GPR40 Functional Assay EC50): 5.5 nM and 6.1 nM and 8.7 nM and 9.9 nM and 11.6 nM and 12.4 nM and 13.4 nM and 3.2 nM and 2.7 nM and 4.1 nM
Efficacy (% Activation), Rat (rat GPR40; [3]): (158%)
EC50 (rat GPR40; mean ± SD, n = 2–20, IP accumulation, read-out: Potency [EC50, nM] ± SD, Rat): 7.8 ± 4 nM
Compound: Cc1cc(OCCCS(C)(=O)=O)cc(C)c1-c1cccc(COc2ccc3c(c2)OC[C@H]3CC(=O)O)c1 [TAK-875, reference compound]
Mouse GPR40 Functional Assay %Act (mouse GPR40; individual replicates (n)): 131% and 140% and 174% and 156% and 154% and 110% and 134% and 185% and 133% and 107% and 152%
HUMAN GPR40 Functional Assay %Act (human GPR40 [1]; individual replicates (n)): 122% and 82% and 93% and 96% and 99% and 104% and 130% and 79%
HUMAN GPR40 Binding Data %Act (human GPR40 [2]; TAK875 sheet, individual replicates (n), tracer not given): 92% and 91% and 95% and 87% and 103% and 89% and 72% and 84% and 93% and 94%
Rat GPR40 Functional Assay %Act (rat GPR40; individual replicates (n)): 129% and 176% and 138% and 164% and 159% and 199% and 148% and 141% and 177% and 150%
